Nine compounds from patent US4177264A, “N-benzyl anthracyclines” (priority 1978, dated 1979) can be followed below.

As usually defined, the ΔTm is the change in melting temperature against a reference sample.

The subject of assay [1] is L1210 Cells. Description: Inhibition of DNA synthesis in L1210 cells. Format: cell-based. Particulars: Mus musculus. From the text: (§1) ^c Assay described in G. Tong, W. W. Lee, D. R. Black and D. W. Henry
The test system of the next assay is isolated helical DNA. Description: ΔTm of isolated helical DNA (DNA-binding). The following applies: difference in DNA melting temperature with and without drug; ~1° weak binding if any, ≥5° significant binding. The source says:
(§2) Sufficient samples of all but compound (VIII) have been obtained for biological screening, and recent results of tests both in vitro and in vivo are shown in Table 2 below. […] The in vitro results are surprising and appear to be highly significant in that there is an abrupt and unexpected loss of DNA-binding properties in going from N-benzyl to N,N-dibenzyl compounds. ΔTm is the most direct measure of DNA-binding but the inhibition of nucleic acid synthesis is also lost. Most of the anthracyclines bind to DNA, presumably by an intercalation mechanism and are mutagenic. In these N,N-dibenzyl compounds the anti-tumor activity in the mouse screen is retained but the DNA-binding properties are lost.
^b ΔTm values represent the difference in temperature
between that at which the DNA denatures (or melts) without the drug and
that at which denaturing occurs in the presence of the drug;

The test system of assay [2] is L1210 Cells. Description: Inhibition of RNA synthesis in L1210 cells. Format: cell-based. The following applies: Mus musculus.
From the text: as §1

A further assay deals with leukemia P388. Nature of the assay: Ip P388 leukemia in mice, survival time (NCI Protocol 1,200). Format: in vivo. The following applies: for response vs control in vivo at 37.5 mg/kg: q4d 5,9,13, 37.5 mg/kg (optimum dose); for response vs control in vivo at 8 mg/kg: q4d 5,9,13, 8 mg/kg.
From the text: as §2
Highest Mean T/C vs P388 in
^d Ip P388 leukemia treated ip on QD1-9 and Q4D 5,9,13 schedules
according to standard NCI protocols. Assay described in R. I. Geran, N. H
Greenberg, M. M. MacDonald, A. M. Schumacker and B. J. Abbott, Cancer
Chemother. Rep., Part 3, 3, (No. 2), 9 (1972), Protocol 1,200. T/C = rati
of survival time of treated mice to that of untreated controls times 100.
Untreated controls survive about 9 days. For Dnm and Adm, % T/C values ar
means from several dozen tests, with standard deviation up to ±40. For
the Nbenzyl compounds, % T/C values are means from all the tests (1 to 3)
so far, at the optimum dose.

The mark [3] stands for this setting: L1210 cells, DNA synthesis, read-out: Inhib of Synth, DNA, ED50.
[4] abbreviates: L1210 cells, RNA synthesis, read-out: Inhib of Synth, RNA, ED50.
The mark [5] stands for this setting: Mus musculus, P388, ip, mean from 1 to 3 tests, read-out: Highest Mean T/C vs P388 in Mice.
Where [6] appears, read: Mus musculus, P388, ip, mean from several dozen tests, SD up to ±40, read-out: Highest Mean T/C vs P388 in Mice.
Setting [7] is: Mus musculus, P388, ip, qd 1-9, 6.25 mg/kg (optimum dose), mean from 1 to 3 tests, read-out: Highest Mean T/C vs P388 in Mice.
Where [8] appears, read: L1210, read-out: Inhib of Synth, DNA, ED50.
The mark [9] stands for this setting: L1210, read-out: Inhib of Synth, RNA, ED50.
[10] abbreviates: Mus musculus, P388, ip, read-out: Highest Mean T/C vs P388 in Mice.

Where two headings read alike, the source gives them in different places.

In the case of `COc1cccc2c1C(=O)c1c(O)c3c(c(O)c1C2=O)C[C@@](O)(C(O)CO)C[C@@H]3O[C@H]1C[C@H](NCc2ccccc2)[C@H](O)[C@H](C)O1` (stereo partly shown) [IV, N-Benzyl-13-dihydroadriamycin], the results for the IC50 with L1210 Cells [1] (setting [3]) and in the assay with L1210 Cells [2] (setting [4]) were 1.4 µM and 0.29 µM, respectively. Also, the ΔTm in the assay on isolated helical DNA came out at 7.6 °C. Further, in the assay on leukemia P388 (setting [5]), the response vs control in vivo at 37.5 mg/kg was 143%. Also, in the assay on leukemia P388 (Mus musculus, P388, ip, qd 1-9, 1.56 mg/kg (optimum dose), mean from 1 to 3 tests, read-out: Highest Mean T/C vs P388 in Mice), the response vs control in vivo at 1.56 mg/kg was found to be 196%.
Regarding `COc1cccc2c1C(=O)c1c(O)c3c(c(O)c1C2=O)C[C@@](O)(C(=O)CO)C[C@@H]3O[C@H]1C[C@H](N)[C@H](O)[C@H](C)O1` [X, Adriamycin, reference compound], the IC50 is 1.5 µM with L1210 Cells [1] (setting [3]) and 0.67 µM in the assay with L1210 Cells [2] (setting [4]). For the same compound, in the assay with isolated helical DNA, the ΔTm came out at 13.4 °C. In addition, in the assay on leukemia P388 (setting [6]), the response vs control in vivo at 8 mg/kg is 157%. Also, the response vs control in vivo at 1 mg/kg in the assay with leukemia P388 (Mus musculus, P388, ip, qd 1-9, 1.0 mg/kg, mean from several dozen tests, SD up to ±40, read-out: Highest Mean T/C vs P388 in Mice) turned out to be 193%.
Regarding `COc1cccc2c1C(=O)c1c(O)c3c(c(O)c1C2=O)C[C@@](O)(C(C)O)C[C@@H]3O[C@H]1C[C@H](NCc2ccccc2)[C@H](O)[C@H](C)O1` (stereo partly shown) [II, N-Benzyl-13-dihydrodaunomycin], the results for the IC50 with L1210 Cells [1] (setting [3]) and in the assay on L1210 Cells [2] (setting [4]) were 1.7 µM and 0.32 µM, respectively. Moreover, the ΔTm in the assay with isolated helical DNA stood at 6.25 °C. Also, the response vs control in vivo at 6.25 mg/kg with leukemia P388 (setting [7]) is 226%.
For `COc1cccc2c1C(=O)c1c(O)c3c(c(O)c1C2=O)C[C@@](O)(C(C)=O)C[C@@H]3O[C@H]1C[C@H](NCc2ccccc2)[C@H](O)[C@H](C)O1` [I, N-Benzyldaunomycin], the IC50 with L1210 Cells [1] (setting [8]) turned out to be 1.6 µM. In addition, the ΔTm in the assay on isolated helical DNA came to 10.2 °C. Also, the IC50 in the assay with L1210 Cells [2] (setting [9]) worked out at 0.17 µM. Also, in the assay on leukemia P388 (setting [10]), the response vs control in vivo at 6.25 mg/kg is 187% and the response vs control in vivo at 18.8 mg/kg stood at 226%.
For `COc1cccc2c1C(=O)c1c(O)c3c(c(O)c1C2=O)C[C@@](O)(C(C)=O)C[C@@H]3O[C@H]1C[C@H](N(Cc2ccccc2)Cc2ccccc2)[C@H](O)[C@H](C)O1` [Compound V, N,N-Dibenzyldaunomycin], the figures for the IC50 in the assay with L1210 Cells [1] (setting [3]) and with L1210 Cells [2] (setting [4]) were greater than 100 µM and 10 µM, respectively. Further, the ΔTm with isolated helical DNA turned out to be 1.35 °C. In the assay on leukemia P388 (setting [5]), the response vs control in vivo at 37.5 mg/kg was 227%. In addition, the response vs control in vivo at 25 mg/kg in the assay on leukemia P388 (Mus musculus, P388, ip, qd 1-9, 25 mg/kg (optimum dose), mean from 1 to 3 tests, read-out: Highest Mean T/C vs P388 in Mice) turned out to be 259%. Further, the “activity against leukemia P388 in mice (in words)” value in the assay on leukemia P388 (ip, mice) is “clearly the best”.
As for `COc1cccc2c1C(=O)c1c(O)c3c(c(O)c1C2=O)C[C@@](O)(C(C)=O)C[C@@H]3O[C@H]1C[C@H](N)[C@H](O)[C@H](C)O1` [IX, Daunomycin, reference compound], the values for the IC50 in the assay with L1210 Cells [1] (setting [3]) and in the assay with L1210 Cells [2] (setting [4]) were 1 µM and 0.3 µM, respectively. In the assay on leukemia P388 (setting [6]), the response vs control in vivo at 8 mg/kg was 134%. For the same compound, the response vs control in vivo at 0.5 mg/kg in the assay on leukemia P388 (Mus musculus, P388, ip, qd 1-9, 0.5 mg/kg, mean from several dozen tests, SD up to ±40, read-out: Highest Mean T/C vs P388 in Mice) is 167%.
Consider `COc1cccc2c1C(=O)c1c(O)c3c(c(O)c1C2=O)C[C@@](O)(C(C)O)C[C@@H]3O[C@H]1C[C@H](N(Cc2ccccc2)Cc2ccccc2)[C@H](O)[C@H](C)O1` (stereo partly shown) [Compound VI, N,N-Dibenzyl-13-dihydrodaunomycin], for which the IC50 was found to be 220 µM in the assay with L1210 Cells [1] (L1210 cells, DNA synthesis, (susp), read-out: Inhib of Synth, DNA, ED50 (susp)) and 7.6 µM in the assay with L1210 Cells [2] (setting [4]). Besides, the ΔTm with isolated helical DNA is 0.6 °C. Also, the response vs control in vivo at 50 mg/kg with leukemia P388 (Mus musculus, P388, ip, q4d 5,9,13, 50 mg/kg (optimum dose), mean from 1 to 3 tests, read-out: Highest Mean T/C vs P388 in Mice) was determined as 233%. Besides, the response vs control in vivo at 40 mg/kg with leukemia P388 (Mus musculus, P388, ip, qd 1-9, 40 mg/kg (optimum dose), mean from 1 to 3 tests, read-out: Highest Mean T/C vs P388 in Mice) amounted to 229%.
Take `COc1cccc2c1C(=O)c1c(O)c3c(c(O)c1C2=O)C[C@@](O)(C(=O)CO)C[C@@H]3O[C@H]1C[C@H](NCc2ccccc2)[C@H](O)[C@H](C)O1` [III, N-Benzyladriamycin]: the IC50 came to 0.65 µM with L1210 Cells [1] (setting [3]) and 0.09 µM in the assay with L1210 Cells [2] (setting [4]). In the assay on isolated helical DNA, the ΔTm was determined as 11.3 °C. Also, in the assay on leukemia P388 (Mus musculus, P388, ip, q4d 5,9,13, 18.8 mg/kg (optimum dose), mean from 1 to 3 tests, read-out: Highest Mean T/C vs P388 in Mice), the response vs control in vivo at 18.8 mg/kg stood at 200%. Besides, in the assay with leukemia P388 (setting [7]), the response vs control in vivo at 6.25 mg/kg was determined as 224%.
As for `COc1cccc2c1C(=O)c1c(O)c3c(c(O)c1C2=O)C[C@@](O)(C(=O)CO)C[C@@H]3O[C@H]1C[C@H](N(Cc2ccccc2)Cc2ccccc2)[C@H](O)[C@H](C)O1` [Compound VII, N,N-Dibenzyladriamycin], the IC50 in the assay on L1210 Cells [1] (setting [8]) was determined as 110 µM; in the assay on L1210 Cells [2] (setting [9]) it was 4.8 µM. Also, the ΔTm with isolated helical DNA was -1.2 °C. The response vs control in vivo at 6.25 mg/kg with leukemia P388 (setting [10]) came out at 175%.
